Reference: patent US5385842A, “Anthraquinones as inhibitors of sulfide production from sulfate-reducing bacteria” (E. I. Du Pont de Nemours and Company, priority 1993, dated 1995)
Where a name gives a salt, the structure may show the parent alone.

What was measured:
[1] = system: Desulfovibrio gigas; assay: Sulfide production by resting cells of D. gigas; format: cell-based; conditions: for activity at 0.1 ppm / activity at 0.5 ppm / activity at 2 ppm / activity at 5 ppm: Desulfovibrio, 3 hours at 31° C.; for inhibition of sulfide production (in words): resting cells
Method: Experiments in this example were carried out using resting cells of Desulfovibrio gigas rather than growing cells as was the case for the autoanalyzer system employing the Desulfovibrio desulfuricans G100A strain. […] Thus the experiment examined a different organism, different test system, and a different physiological state for the phenomenon of anthraquinone inhibition of sulfide production by Desulfovibrio sp. Active compounds, as determined by the autoanalyzer, were evaluated in comparison with four additional compounds not evaluated in the autoanalyzer.
500 ml cultures of Desulfovibrio gigas were grown on standard BTZ-3 medium as previously described in Example 1 with 30 mM sodium lactate, 30 mM sodium sulfate and 30 mM sodium fumarate. The culture was harvested after 24 h of growth at 31° C. by centrifugation at 8000 rpm in a GSA Sorvall rotor for 20 minutes. The cell pellet was resuspended in 30 ml of incubation assay mixture of the following composition: 50 mM HEPES buffer pH 7 buffer, 2.5 mM sodium lactate, 2.5 mM sodium sulfate. This suspension was centrifuged again at 10,000 rpm in a Sorvall SS-34 rotor for 5 minutes. The resulting cell pellet was resuspended in 5 ml of incubation assay buffer. Cell densities were generally near 10e10 cells/mi.
The samples were assayed for production in the presence of anthraquinones. 200 ul of the cell suspension was added to 1.2 ml of incubation assay mixture in a 5 ml capacity test tube. The tube was gassed with hydrogen gas for 20 minutes then the anthraquinones were added as ethanolic solutions, the tubes were then gassed with hydrogen again for 5 minutes. The reaction mixtures were then incubated for 3 hours at 31° C. The reactions were stopped by the addition of 200 ul of 1N sodium hydroxide. After 20 minutes the alkaline mixtures were centrifuged in a table top microfuge for 4 minutes at 14,000 rpm to remove cells and cell debris. The supernatant was then assayed for sulfide using the ferric chloride-DPD reagent system as described by Siegel et al., Anal. Blochem., 11:126-132, 1965, herein incorporated by reference.

[2] = system: Desulfovibrio desulfuricans G100A; assay: microbe, parasite or virus in culture; format: cell-based
[3] = Desulfovibrio desulfuricans, G100A, read-out: % Inhib. (inhibition of sulfide production)

Structure (SMILES)	inhibition at 30 ppm [2, 3] [%]	inhibition at 10 ppm [2, 3] [%]	also measured
N#Cc1cccc2c1C(=O)c1ccccc1C2=O [1-cyanoanthraquinone, 1-Cyanoanthraquinone]	–	–	activity at 0.1 ppm [1]: 118%; activity at 0.5 ppm [1]: 20%; activity at 2 ppm [1]: 6.7%; activity at 5 ppm [1]: 6.8%; inhibition of sulfide production (in words) [1]: inhibitory effect
O=C1c2ccccc2C(=O)c2c(F)cccc21 [1-fluoroanthraquinone, 1-Fluoroanthraquinone]	–	–	activity at 0.1 ppm [1]: 105%; activity at 0.5 ppm [1]: 23%; activity at 2 ppm [1]: 0.9%; activity at 5 ppm [1]: 0.9%; inhibition of sulfide production (in words) [1]: inhibitory effect
O=C1c2ccccc2C(=O)c2cc(Br)ccc21 [2-bromoanthraquinone, 2-Bromoanthraquinone]	–	–	activity at 0.1 ppm [1]: 99%; activity at 0.5 ppm [1]: 33%; activity at 2 ppm [1]: 0.6%; activity at 5 ppm [1]: 0.6%; inhibition of sulfide production (in words) [1]: inhibitory effect
O=C1c2ccccc2C(=O)c2c1ccc1ccccc21 [Benz[a]anthracene-7,12-dione]	52.9	–	–
Cc1c(C(=O)O)c(O)cc2c1C(=O)c1c(O)c([C@@H]3O[C@H](CO)[C@@H](O)[C@H](O)[C@H]3O)c(O)c(O)c1C2=O [Carminic acid, 7-β-D-Glucopyranosyl-9,10-dihydro-3,5,6,8-tetra-hydroxy-1-methyl-9,10-dioxo-2-anthracene-carboxylic acid]	–	–	inhibition at 10 µg/mL [2, 3]: 0%
Cc1cc(O)c2c(c1O)C(=O)c1cc(O)cc(O)c1C2=O [Catenarin, 1,4,5,7-Tetrahydroxy-2-methyl-9,10-anthracenedione]	–	37.5	–
Cc1cc(O)c2c(c1)C(=O)c1cccc(O)c1C2=O [Chrysophanic acid, 1,8-Dihydroxy-3-methylanthraquinone]	27.9	–	–
Cc1cc(O)c2c(c1O)C(=O)c1c(O)ccc(O)c1C2=O [Cynodontin, 1,4,5,8-Tetrahydroxy-2-methyl-9,10-anthracenedione]	–	34.4	–
COc1cccc2c1C(=O)c1c(O)c3c(c(O)c1C2=O)C[C@@](O)(C(C)=O)C[C@@H]3O[C@H]1C[C@H](N)[C@H](O)[C@H](C)O1 [Daunomycin hydrochloride, (8S-cis)-8-Acetyl-10[(3-amino-2,3,6-trideoxy-alpha-L-lyxo-hexopyranosyl)oxy]-7,8,9,10-tetrahydro-6,8,11-trihydroxy-1-methoxy-5,12-naphthacenedione hydrochloride, reference compound]	62.9	–	–
O=C1c2ccccc2C(=O)c2c(Nc3cccc4c3C(=O)c3ccccc3C4=O)cccc21 [Dianthrimide, 1,1'-Iminobis-9,10-anthracenedione]	2.6	–	–
Nc1ccc(N)c2c1C(=O)c1c(N)ccc(N)c1C2=O [Disperse blue 1, 1,4,5,8-Tetraaminoanthraquinone]	3.9	–	–
CNc1ccc(NCCO)c2c1C(=O)c1ccccc1C2=O [Disperse blue 3, 1-(2-Hydroxyethyl)amino-4-methylaminoanthraquinone]	6.4	–	–
Cc1ccc2c(c1N)C(=O)c1ccccc1C2=O [Disperse orange 11, 1-Amino-2-methylanthraquinone]	5.2	–	–
COc1cc(N)c2c(c1N)C(=O)c1ccccc1C2=O [Disperse red 11, 1,4-Diamino-2-methoxyanthraquinone]	0	–	–
Cc1cc(O)c2c(c1)C(=O)c1cc(O)cc(O)c1C2=O [Emodin, 6-Methyl-1,3,8-trihydroxyanthraquinone]	2.6	–	–
Cc1cc(O)c2c(c1)C(=O)c1cc(O[C@@H]3OC[C@](O)(CO)[C@H]3O)cc(O)c1C2=O [Frangulin B, 3-(D-apio-beta-D-Furanosyloxy)-1,8-dihydroxy-6-methyl-9,10-anthracenedione]	57.1	–	–
Cc1cc(O)c2c(c1)C(=O)c1c(O)ccc(O)c1C2=O [Helminthosporin, 1,5,8-Trihydroxy-3-methyl-9,10-anthracenedione]	–	31.3	–
O=C1c2ccc3nc(-c4ccccc4)sc3c2C(=O)c2ccc3nc(-c4ccccc4)sc3c21 [Indanthrene yellow GCN, 2,8-Diphenyl-anthra[2,1-d:6,5-d']bisthiazole-6,12-dione]	–	15.6	–
Cc1cc(O)c2c(c1O)C(=O)c1cccc(O)c1C2=O [Islandicin, 1,4,5-Trihydroxy-2-methyl-9,10-anthracenedione]	–	50	–

Structure (SMILES)	inhibition at 30 ppm [2, 3] [%]	inhibition at 10 ppm [2, 3] [%]	also measured
COc1cc(NS(=O)(=O)c2ccc(C)cc2)c2c(c1N)C(=O)c1ccccc1C2=O [N-(4-Amino-9,10-dihydro-3-methoxy-9,10-dioxo-1-anthracenyl)-4-methylbenzenesulfonamide]	4.3	–	–
O=C1c2ccccc2C(=O)c2cc(S(=O)(=O)NCc3ccccc3)ccc21 [N-Benzyl-9,10-dihydro-9,10-dioxo-2-anthracenesulfonamide]	3.9	–	–
CC(C)NC(=N)NC(=N)Nc1cccc2c1C(=O)c1ccccc1C2=O [N-[1-(9,10-dihydro-9,10-dioxo)anthracenyl]-N'-(1-methylethyl)imidodicarbonimidic diamide hydrochloride]	–	–	inhibition of sulfide production (in words) [2]: inhibited sulfide formation; % inhibition of sulfide formation ([2]; Table III, Example 3): 83%
Nc1c(O)c(S(=O)(=O)O)c(O)c2c1C(=O)c1ccccc1C2=O [Nuclear fast red, 4-Amino-9,10-dihydro-1,3-dihydroxy-9,10-dioxo-2-anthracenesulfonic acid, monosodium salt]	–	20.4	–
CCCCCNc1ccc(NCCCCC)c2c1C(=O)c1ccccc1C2=O [Oil blue N, 1,4-Bis(pentylamino)-9,10-anthracenedione]	3.6	–	–
COc1cc(O)c2c(c1)C(=O)c1cc(C)cc(O)c1C2=O [Physcion, 1,8-Dihydroxy-3-methoxy-6-methyl-9,10-anthracenedione]	–	34.4	–
O=C1c2ccccc2C(=O)c2c(O)c(O)cc(O)c21 [Purpurin, 1,2,4-Trihydroxyanthraquinone]	55.7	–	–
O=C1c2ccc(O)c(O)c2C(=O)c2c(O)ccc(O)c21 [Quinalizarin, 1,2,5,8-Tetrahydroxyanthraquinone]	–	80	–
Nc1c(S(=O)(=O)O)cc(Nc2ccc(S(=O)(=O)O)c(Nc3nc(Cl)nc(Nc4cccc(S(=O)(=O)O)c4)n3)c2)c2c1C(=O)c1ccccc1C2=O [Reactive blue 5, 1-Amino-4[[3-[[4-chloro-6-[(3-sulfophenyl)amino]-1,3,5-triazin-2-yl]amino]-4-sulfophenyl]amino]-9,10-dihydro-9,10-dioxo-2-anthracenesulfonic acid]	–	0	–
Nc1c(S(=O)(=O)O)cc(Nc2cccc(S(=O)(=O)CCOS(=O)(=O)O)c2)c2c1C(=O)c1ccccc1C2=O [Remazol Brilliant blue R, 1-Amino-9,10-dihydro-9,10-dioxo-4-[[3[[2-(sulfoxy)-ethyl]sulfonyl]phenyl]amino]-2-anthracenesulfonic acid, disodium salt]	–	12.4	–
O=C1c2ccccc2C(=O)c2c1ccc(O[C@@H]1O[C@H](CO[C@@H]3OC[C@@H](O)[C@H](O)[C@H]3O)[C@@H](O)[C@H](O)[C@H]1O)c2O [Ruberythric acid, 1-Hydroxy-2-[(6-O-β-D-xylopyranosyl-β-D-glucopyranosyl)oxy]-9,10-anthracenedione]	–	29.7	–
Cc1ccc(Nc2ccc(Nc3ccc(C)cc3)c3c2C(=O)c2ccccc2C3=O)cc1 [Solvent green 3, 1,4-Bis[(4-methylphenyl)amino]9,10-anthracenedione]	4.3	–	–
Cc1ccc(Nc2ccc(O)c3c2C(=O)c2ccccc2C3=O)c(S(=O)(=O)O)c1 [Solway purple R, 2-[(9,10-Dihydro-4-hydroxy-9,10-dioxo-1-anthracenyl)-amino]-5-methyl-benzenesulfonic acid, Na salt]	9.1	–	–
CCNc1ccc(NCC)c2c1C(=O)c1ccccc1C2=O [Sudan blue, 1,4-Bis(ethylamino)-9,10-anthracenedione]	1.3	–	–
Cc1ccc(Nc2ccc(Nc3ccc(C)cc3)c3c2C(=O)c2cccc(O)c2C3=O)cc1 [Sudan green, 5-hydroxy-1,4-bis[(4-methylphenyl)amino]-9,10-anthracenedione]	0	–	–
CN(C)CCOc1ccc2c(c1)C(=O)c1ccc(OCCN(C)C)cc1C2=O [Tilorone analog R11,043DA, 2,6-Bis[2-(dimethylamino)ethoxy]-9,10-anthracenedione]	–	98.7	–
Cc1ccc(Nc2ccc(Nc3ccc(C)cc3S(=O)(=O)O)c3c2C(=O)c2c(O)ccc(O)c2C3=O)c(S(=O)(=O)O)c1 [alizarine viridine, 2,2'-[(9,10-Dihydro-5,8-dihydroxy-9,10-dioxo-1,4-anthracenediyl)diimino]bis[5-methyl]benzenesulfonic acid]	2.6	–	–
Nc1c(S(=O)(=O)O)cc(Nc2ccc(S(=O)(=O)O)c(Nc3nc(Cl)nc(Cl)n3)c2)c2c1C(=O)c1ccccc1C2=O [reactive blue 4]	–	7.3	–
